Assay results published in patent publication US10683315B2, “Prodrug of an HCV NS5B polymerase inhibitor and method of production and application thereof” (priority 2017, dated 2020).
Where “and” joins values, the source holds several entries; their conditions need not be identical. Equal values may be shown once.

Assays:
Huh7 cells = experiment: Cytotoxicity in Huh7 cells, ATPLite kit; type: cell-based, human
Protocol: The cytotoxicity of tested compositions comprising the prodrugs was evaluated concurrently in the same cell line Huh7 using an ATPLite kit (Perkin-Elmer, Boston, USA) in accordance with the manufacturer's instruction. The cell suspension in complete culture medium (DMEM 1×, Cellgro; cat. #10-013-CV) was transferred into 96-well plates with black walls and transparent bottoms (50 μl/well) with a final density of 7500 cells per well. Eighteen hours after planting the cells, serial drug dilutions (50 μl/well) were added. The plate with cells was incubated for 4 days at 37° C. in a humidified 5% CO2 atmosphere. The cells were then twice washed with PBS (200 μl/well) and lysed by adding a lytic buffer (50 μl/well); all reagents were taken from the ATPLite kit. Following a 5-minute stirring on a shaker, a substrate was added (50 μl/well). After an additional 5-minute incubation, the plate was kept for 10 minutes in the dark, and luminescence in the wells was measured using the multifunctional reader Victor^3 V 1420 (Perkin Elmer). The values of CC50 for tested prodrugs were measured from a cytotoxicity curve plotted using the GraphPad Prizm software.

[1] = Stability in human liver S9 fraction; type: in vitro ADME
Protocol: Proteins were deposited on ice for 15 min. The samples were then centrifuged for 10 min at 3000 rpm, and the supernatant (150 μl) was sampled for analysis.
Tolbutamide (Fluka) was used as the internal standard.

[2] = from Sofia et al. J. Med. Chem. 2010; cited from earlier work

Row | Compound | CC90 (Huh7 cells; Huh7, 10% FBS) | CC50 (Huh7 cells; Huh7, ATPLite, 4 days) | metabolic rate in human liver microsomal S9 fraction, times faster than cyclohexyl ester of formula A1 ([1]; ratio of T1/2 vs A1) | metabolic rate in human liver microsomal S9 fraction, times faster than Sovaldi ([1]; ratio of T1/2 vs Sovaldi) | T1/2 human S9 [2]
1 | C[C@H](N[P@](=O)(OC[C@H]1O[C@@H](n2ccc(=O)[nH]c2=O)[C@](C)(F)[C@@H]1O)Oc1ccccc1)C(=O)OC1CCC1 [Prodrug 1.1, cyclobutyl (S)-2-{(S)-[(2R,3R,4R,5R)-5-(3,4-dihydro-2,4-dioxo-2H-pyrimidin-1-yl)-3-hydroxy-4-methyl-4-fluoro-tetrahydrofuran-2-ylmethoxy]-phenoxy-phosphorylamino}-propanoate] | > 100 µM | > 100 µM | 28 times | 11 times | –
2 | CC(C)OC(=O)[C@H](C)N[P@](=O)(OC[C@H]1O[C@@H](n2ccc(=O)[nH]c2=O)[C@](C)(F)[C@@H]1O)Oc1ccccc1 [Sovaldi®, Sofosbuvir] | – | – | – | – | 34.2 min and 32.4 min
